The subject of test [1] is T.cruzi CL Brener (clone F11-F5). Briefly: Vero cell infection by trypomastigotes in the presence of inhibitor (17h), Giemsa scoring. To be noted: for Mean number of parasites/ cell: 1,5 at 0; for % Infected cells: 38,6 at 0; for Endocytic index: 57 at 0. Also on record: key to Endocytic index / Endocytic index (EI): EI = % infected cells × mean parasites per infected cell. In kind it is cell-based. The procedure:
Vero cells (from green monkey kidney) were seeded at a density of 15x10^6 cells per 25cm^2 culture flasks or at 5 x10^4 cells/well into LabTek slides. The cultures were maintained in RPMI 1640 medium supplemented with 5% fetal bovine serum and kept at 37°C in an atmosphere of 5% CO2. Cell culture-derived trypomastigotes from T.cruzi CL Brener (clone F11-F5) were isolated from the supernatant of Vero cells, which had been previously infected with bloodstream trypomastigotes. Vero cell cultures were infected for 17h at 37°C with cultured trypomastigotes at a 10:1 parasite/cell ratio in the presence or in the absence of increasing doses of freshly made dilutions (3-30 µM) of (E)-4-oxopent-2-enoic acid (OxoPA) and its derivative (E)-5-bromo-4-oxopent-2-enoic acid (Br-OxoPA), previously dissolved in dimethyl sulfoxide (DMSO). For comparison, cultures were seeded with or without 10-1000 µM specific proline racemase inhibitor pyrrole-2-carboxylic acid (PYC) also diluted in DMSO. To verify if proline racemase inhibitors could also exert an effect on the parasite intracellular cycle after 17 hours of parasite-host cell interaction, all the wells were then rinsed three times to eliminate all extracellular parasites and new medium was added to the cultures that were incubated for up to 48 hours with fresh dilutions of the inhibitor compounds. After the different treatments, cultures were washed with PBS, fixed and stained with Giemsa. The numbers of infected host cells and of parasites per infected cell were then scored in at least 400 host cells in independent experiments, run in duplicate. Results are expressed as the percentage of infected cells, the mean number of parasites per infected cell or by the endocytic index (EI) which represents the percentage of infected cells multiplied by the mean number of parasites per infected cell.
Vero cells (from green monkey kidney) were seeded at a density of 15x10^6 cells per 25cm^2 culture flasks or at 5 x10^4 cells/well into LabTek slides. The cultures were maintained in RPMI 1640 medium supplemented with 5% fetal bovine serum and kept at 37°C in an atmosphere of 5% CO2. Cell culture-derived trypomastigotes from T.cruzi CL Brener (clone F11-F5) were isolated from the supernatant of Vero cells, which had been previously infected with bloodstream trypomastigotes. LabTek wells were infected for 17h at 37°C with cultured trypomastigotes at a 10:1 parasite/cell ratio in the presence or in the absence of increasing doses of a freshly made dilutions of 3-30 µM of OxoPA or Br-OxoPA molecules. Cultures were washed, fixed and stained with Giemsa. *At this stage, for comparison, results obtained from cultures seeded with or without 10-1000 µM specific proline racemase inhibitor pyrrole-2-carboxylic acid (PYC) are shown and were obtained from our previous work. Endocytic index was calculated as the % of infected cells X the mean number of intracellular parasites per infected cell. Nd = Not done

Another test relates to T. cruzi. Put plainly: Capture ELISA of Vero cultures infected 17h with or without inhibitor. To be noted: 17h at 37°C, 10:1 parasite/cell ratio; 0-30 mM OxoPA, Br-OxoPA or 10-1000 µM PYC in DMSO; Fig. 9. In kind it is cell-based, Trypanosoma cruzi. The procedure: Flat-bottomed microtiter plates (Nunc, Denmark) were coated overnight at 4°C with rabbit anti-T. cruzi polyclonal antibodies and further blocked for 4 h at room temperature (RT) with 1% BSA, 0.05% Tween 20 in PBS. After washings, lysate samples from infected or control Vero cultures, or from T. cruzi, were then added and incubated at 4°C for 18h. Plates were washed with PBS-Tween and incubated for 2h at RT with polyclonal mouse anti-T. cruzi chronic serum, washed again and incubated for 1 h at RT with HRP-secondary antibodies. […] Optical densities were determined in a spectrophotometer at 450 nm and 650 nm and analyzed using Softmax Pro software.
To confirm the effect of the inhibitors in the initial steps of the host-parasite interaction, cultures were infected for 17h at 37°C at a 10:1 parasite/cell ratio with or without increasing doses of freshly prepared dilutions (0-30 mM) of OxoPA, Br-OxoPA (15), or (10-1000 µM) of PYC, previously dissolved in DMSO and further analyzed by capture ELISA (see methods and Fig. 9). […] Three ongoing studies were performed to determine whether TcPRAC inhibition by the new compounds affects parasite intracellular fate. To do this, host cells were infected for 17 hours then washed and different ligand concentrations (5 mM, 10 mM, 30, 100 mM) were added to the medium. The degree of infection was determined over 48 hours by capture ELISA. The number of parasites per well decreased in a dose-dependent manner (Fig. 7). These experiments indicate that TcPRAC inhibition by OxoPA and Br-OxoPA affects both cellular infection by T. cruzi and parasite development in tissues.
In general terms: An ELISA detects its analyte on a solid surface through an enzyme-linked reagent.

Setting [2] is: Inhibitor concentration (µM) 30, Table 5.

Take `O=C(O)/C=C/C(=O)CBr` [Br-OxoPA, (E)-5-bromo-4-oxopent-2-enoic acid]: the “Mean number of parasites/ cell” value is on record as 2,0 in test [1] (3 µM), 1,8 in test [1] (10 µM) and 1,6 in test [1] (30 µM). The “% Infected cells” value in test [1] (3 µM) is reported as 37,7%; in test [1] (10 µM), 23,5%; in test [1] (30 µM) it was 13,5%. Further, the Endocytic index in test [1] (3 µM) is recorded as 77,7; in test [1] (10 µM), 42,3; in test [1] (30 µM) it was 28,7. Also, the “Endocytic index (EI)” value amounted to 42 in test [1] (Inhibitor concentration (µM) 10, Table 5) and 29 in test [1] (setting [2]). Besides, the results for the “lower doses necessary to obtain the same endocytic index (EI) as with PYC” value in test [1] (Table 5) and in test [1] (versus 1000 µM PYC) were 30 fold and 30 times, respectively. In the test on T. cruzi, the “inhibition of cellular infection” value was “a clear dose dependent inhibition of cellular infection”.

Regarding `CC(=O)/C=C/C(=O)O` [OxoPA, (E)-4-oxopent-2-enoic acid], the “Mean number of parasites/ cell” value in test [1] (3 µM) is reported as 1,6; in test [1] (10 µM), 1,4; in test [1] (30 µM) it was 1,5. The “% Infected cells” value is 26,8% in test [1] (3 µM), 16,6% in test [1] (10 µM) and 13,9% in test [1] (30 µM). Moreover, the Endocytic index in test [1] (3 µM) was 41,8; in test [1] (10 µM), 22,96; in test [1] (30 µM) it was 21,5. Further, the “Endocytic index (EI)” value in test [1] (setting [2]) is listed as 21. For the same compound, the “lower doses necessary to obtain the same endocytic index (EI) as with PYC” value in test [1] (Table 5) is 100 fold; in test [1] (versus 1000 µM PYC) it was 100 times. Also, the “inhibition of cellular infection” value in the test on T. cruzi is recorded as “a clear dose dependent inhibition of cellular infection”.

For the origin of these results see EP2451450B1, “Inhibitors of proline racemase enzymes for the treatment of Trypanosoma spp infections” (Institut Pasteur, priority 2009, dated 2011).
